# Measurements from patent publication US9167822B2, “Antifungal compositions” (DSM IP ASSETS B.V., priority 2012, dated 2015).
# Values joined by “and” are separate entries in the source; they are usually repeats but may differ in a detail not shown here. Identical values can stand only once.
# How the values were obtained:
# [1] = tested on: Botrytis cinerea; assay: Treatment of strawberries: wounded, inoculated with Botrytis cinerea, then dipped in antifungal composition; type: in vivo
# Procedure: (§1) Ten fresh, organic strawberries were used per treatment. Each strawberry was wounded with a 0.5 mm long cut and each wound was inoculated with 10 μl of a Botrytis cinerea suspension containing 1×10^5 of spores/ml. […] The pH of the compositions was 4. A composition without natamycin or bixafen was used as control. The treated strawberries were incubated in a closed box in the dark at 20° C.
# (§2) During incubation, mould growth on the strawberries was assessed in a twofold manner: (i) the number of moulded strawberries per total of 10 strawberries was counted; and (ii) the antifungal activity (in %) of the individual and combined active ingredients was determined by calculating the reduction in mould growth observed on the strawberries treated with the antifungal composition in comparison to the mould growth on the strawberries treated with the control composition. The expected antifungal activity (E in %) of the combined antifungal composition comprising both active ingredients was calculated according to the Colby equation (Colby, 1967): E=X+Y−[(X·Y)/100] wherein X and Y are the observed antifungal activities (in %) of the individual active ingredients X and Y, respectively. If the observed antifungal activity (O in %) of the combination exceeds the expected antifungal activity (E in %) of the combination and the synergy factor O/E is thus >1.0, the combined application of the active ingredients leads to a synergistic antifungal effect.
# The treated strawberries were assessed on mould growth. The antifungal activity (in %) of the individual and combined active ingredients was determined according to the method described in Example 3. […]
# [2] = tested on: Botrytis cinerea; assay: Treatment of strawberries: wounded, dipped in antifungal composition, then inoculated with Botrytis cinerea; type: in vivo; details: 1000 ppm bixafen or both
# Procedure: as §1, §2
# After treatment, each strawberry was inoculated with 10 μl of a Botrytis cinerea suspension containing 1×10^5 of spores/ml. The treated strawberries were assessed on mould growth according to the two methods described in Example 3.
# [3] = tested on: Penicillium italicum; assay: Treatment of apples wounded and inoculated with Penicillium italicum, then dipped; type: in vivo; details: for Number of moulded apples/total number of 10 apples: 500 ppm natamycin; for Number of moulded apples per total of 10 apples: 250 ppm natamycin
# Procedure: Ten fresh, organic apples were used per treatment. Each apple was wounded once using a cork borer according to the method described by de Lapeyre de Bellaire and Dubois (1987). Subsequently, each wound was inoculated with 10 μl of a Penicillium italicum suspension containing 1×10^6 of spores/ml. […] The pH of the compositions was 4. A composition without natamycin or bixafen was used as control. The treated apples were incubated in a closed box in the dark at 20° C. […]
# During incubation, the treated apples were assessed on mould growth according to the two methods described in Example 3. […]
# [4] = tested on: Penicillium italicum; assay: Treatment of mandarins wounded and inoculated with Penicillium italicum, then dipped; type: in vivo
# Procedure: Ten fresh, organic mandarins were used per treatment. The peel of each mandarin was wounded once using a cork borer according to the method described by de Lapeyre de Bellaire and Dubois (1987). Subsequently, each wound was inoculated with 10 μl of a Penicillium italicum suspension containing 1×10^5 of spores/ml. […] The pH of the compositions was 4.
# The treated mandarins were incubated in a closed box in the dark at 20° C. and assessed on mould growth during incubation.
# [5] = tested on: Penicillium italicum; assay: In vitro antifungal activity, 96-well microtiter plates; type: cell-based; details: 25° C.
# Procedure: Subsequently, 100 μl of a Botrytis cinerea suspension prepared in PCB medium was used to inoculated each well with 2.5×10^3 spores/ml.
# After incubation of the microtiter plates at 25° C., the in vitro antifungal activity (%) of the individual active ingredients was assessed by calculating the reduction in mould growth observed in the presence of the active ingredient in comparison to the mould growth observed in the absence of the active ingredient. The expected antifungal activity (E in %) of the active ingredient combination was calculated according to the Colby equation (Colby, 1967): E=X+Y−[(X·Y)/100] wherein X and Y are the observed antifungal activities (in %) of the individual active ingredients X and Y, respectively. If the observed antifungal activity (O in %) of the combination exceeds the expected antifungal activity (E in %) of the combination and the resulting synergy factor O/E is thus >1.0, the combined application of the active ingredients leads to a synergistic antifungal effect.
# Furthermore, Penicillium italicum was used for inoculation.
# [6] = day 3, 500 ppm natamycin, 2000 ppm bixafen or both
# [7] = day 4, 250 ppm natamycin, 250 ppm bixafen or both
# [8] = day 4, 250 ppm natamycin, 500 ppm bixafen or both
# [9] = day 4, 500 ppm natamycin, 2000 ppm bixafen or both
# [10] = day 6, 250 ppm natamycin, 250 ppm bixafen or both
# [11] = day 6, 250 ppm natamycin, 500 ppm bixafen or both
# [12] = day 6, 500 ppm natamycin, 2000 ppm bixafen or both
# [13] = day 7, 250 ppm natamycin, 250 ppm bixafen or both
# [14] = day 7, 250 ppm natamycin, 500 ppm bixafen or both
# [15] = day 9, 250 ppm natamycin, 500 ppm bixafen or both
# [16] = day 9, 500 ppm natamycin, 2000 ppm bixafen or both
# [17] = day 6, 500 ppm natamycin, 1000 ppm bixafen or both
# [18] = day 11, 500 ppm natamycin, 2000 ppm bixafen or both
# [19] = day 14, 500 ppm natamycin, 1000 ppm bixafen or both
# [20] = day 14, 500 ppm natamycin, 2000 ppm bixafen or both
smiles,measurement,setting,value
"C[C@@H]1C/C=C/C=C/C=C/C=C/[C@H](O[C@@H]2O[C@H](C)[C@@H](O)[C@H](N)[C@@H]2O)C[C@@H]2O[C@](O)(C[C@@H](O)C[C@H]3O[C@@H]3/C=C/C(=O)O1)C[C@H](O)[C@H]2C(=O)O [Natamycin, natamycin]",Number of moulded strawberries/total number of 10 strawberries,"[1]; Day 3, 20° C., 250 ppm natamycin, 250 ppm bixafen or both",8 and 8/10
same,Number of moulded strawberries/total number of 10 strawberries,"[1]; Day 3, 20° C., 500 ppm natamycin, 2000 ppm bixafen or both",10 and 10/10
same,Number of moulded strawberries/total number of 10 strawberries,"[1]; Day 4, 20° C., 250 ppm natamycin, 250 ppm bixafen or both",10 and 10/10
same,Number of moulded strawberries/total number of 10 strawberries,"[1]; Day 4, 20° C., 500 ppm natamycin, 2000 ppm bixafen or both",10 and 10/10
same,Number of moulded strawberries/total number of 10 strawberries,"[1]; Day 5, 20° C., 250 ppm natamycin, 250 ppm bixafen or both",10 and 10/10
same,Number of moulded strawberries/total number of 10 strawberries,"[1]; Day 5-6, 20° C., 500 ppm natamycin, 2000 ppm bixafen or both",10 and 10/10
same,Observed antifungal activity O (%),[1]; [6],21%
same,Observed antifungal activity O (%),[1]; [7],6%
same,Observed antifungal activity O (%),[1]; [8],6%
same,Observed antifungal activity O (%),[1]; [9],16%
same,Observed antifungal activity O (%),"[1]; day 5, 250 ppm natamycin, 250 ppm bixafen or both",2%
same,Observed antifungal activity O (%),"[1]; day 5, 500 ppm natamycin, 2000 ppm bixafen or both",3%
same,Observed antifungal activity O (%),[1]; [10],0%
same,Observed antifungal activity O (%),[1]; [11],0%
same,Observed antifungal activity O (%),[1]; [12],0%
same,Observed antifungal activity O (%),[1]; [13],0%
same,Observed antifungal activity O (%),[1]; [14],0%
same,Observed antifungal activity O (%),"[1]; day 7, 500 ppm natamycin, 2000 ppm bixafen or both",0%
same,Observed antifungal activity O (%),[1]; [15],0%
same,Observed antifungal activity O (%),[1]; [16],0%
same,Observed antifungal activity O (%),"[1]; day 10, 250 ppm natamycin, 500 ppm bixafen or both",0%
same,Observed antifungal activity O (%),"[2]; day 3, 500 ppm natamycin",59%
same,Number of moulded wounds/total number of 10 wounds,"[2]; day 5, 20° C., 250 ppm natamycin",10 and 10/10
same,Observed antifungal activity O (%),"[2]; day 5, 500 ppm natamycin",19%
same,Observed antifungal activity O (%),"[2]; day 6, 500 ppm natamycin",12%
same,Number of moulded apples/total number of 10 apples,"[3]; Day 3, 20° C., 1000 ppm bixafen or both",9 and 9/10
same,Number of moulded apples/total number of 10 apples,"[3]; Day 3-4, 20° C., 2000 ppm bixafen or both",9 and 9/10
same,Number of moulded apples/total number of 10 apples,"[3]; Day 4, 20° C., 1000 ppm bixafen or both",9 and 9/10
same,Number of moulded apples per total of 10 apples,"[3]; Day 6, 20° C., 500 ppm bixafen or both",10 and 10/10
same,Number of moulded apples/total number of 10 apples,"[3]; Day 6, 20° C., 1000 ppm bixafen or both",10 and 10/10
same,Number of moulded apples/total number of 10 apples,"[3]; Day 6, 20° C., 2000 ppm bixafen or both",10 and 10/10
same,Number of moulded apples per total of 10 apples,"[3]; Day 6-9, 20° C., 250 ppm bixafen or both",all and 10/10
same,Number of moulded apples per total of 10 apples,"[3]; Day 7, 20° C., 500 ppm bixafen or both",10 and 10/10
same,Number of moulded apples/total number of 10 apples,"[3]; Day 7, 20° C., 1000 ppm bixafen or both",10 and 10/10
same,Number of moulded apples/total number of 10 apples,"[3]; Day 7, 20° C., 2000 ppm bixafen or both",10 and 10/10
same,Number of moulded apples per total of 10 apples,"[3]; Day 9, 20° C., 500 ppm bixafen or both",10 and 10/10
same,Number of moulded apples/total number of 10 apples,"[3]; Day 9-14, 20° C., 1000 ppm bixafen or both",all and 10/10
same,Number of moulded apples/total number of 10 apples,"[3]; Day 9-14, 20° C., 2000 ppm bixafen or both",all and 10/10
same,Number of moulded apples per total of 10 apples,"[3]; Day 11-15, 20° C., 250 ppm bixafen or both",all and 10/10
same,Observed antifungal activity O (%),"[3]; day 3, 500 ppm natamycin, 1000 ppm bixafen or both",33%
same,Observed antifungal activity O (%),[3]; [6],33%
same,Observed antifungal activity O (%),"[3]; day 6, 250 ppm natamycin, 250 ppm bixafen or both (bixafen 500 ppm)",38%
same,Observed antifungal activity O (%),[3]; [11],38%
same,Observed antifungal activity O (%),[3]; [17],6%
same,Observed antifungal activity O (%),[3]; [12],6%
same,Observed antifungal activity O (%),[3]; [14],42%
same,Observed antifungal activity O (%),"[3]; day 9, 250 ppm natamycin, 250 ppm bixafen or both (bixafen 500 ppm)",35%
same,Observed antifungal activity O (%),[3]; [15],35%
same,Observed antifungal activity O (%),"[3]; day 9, 500 ppm natamycin, 1000 ppm bixafen or both",21%
same,Observed antifungal activity O (%),[3]; [16],21%
same,Observed antifungal activity O (%),"[3]; day 11, 250 ppm natamycin, 250 ppm bixafen or both (bixafen 500 ppm)",42%
same,Observed antifungal activity O (%),"[3]; day 11, 500 ppm natamycin, 1000 ppm bixafen or both",26%
same,Observed antifungal activity O (%),[3]; [18],26%
same,Observed antifungal activity O (%),"[3]; day 14, 250 ppm natamycin, 250 ppm bixafen or both (bixafen 500 ppm)",49%
same,Observed antifungal activity O (%),[3]; [19],30%
same,Observed antifungal activity O (%),[3]; [20],30%
same,Observed antifungal activity O (%),"[4]; day 3, 250 ppm natamycin, 250 ppm bixafen or both",70%
same,Observed antifungal activity O (%),[4]; [7],43%
same,Observed antifungal activity O (%),[4]; [8],43%
same,Observed antifungal activity O (%),"[4]; day 4, 500 ppm natamycin, 1000 ppm bixafen or both",63%
same,Observed antifungal activity O (%),[4]; [9],63%
same,Observed antifungal activity O (%),[4]; [10],18%
same,Observed antifungal activity O (%),[4]; [11],18%
same,Observed antifungal activity O (%),[4]; [17],28%
same,Observed antifungal activity O (%),[4]; [12],28%
same,Observed antifungal activity O (%),[4]; [13],10%
same,Observed antifungal activity O (%),[4]; [14],10%
same,Observed antifungal activity O (%),"[4]; day 7, 500 ppm natamycin, 1000 ppm bixafen or both",16%
same,Observed antifungal activity O (%),"[4]; day 9, 250 ppm natamycin, 250 ppm bixafen or both",8%
same,Observed antifungal activity O (%),[4]; [15],8%
same,Observed antifungal activity O (%),"[4]; day 11, 250 ppm natamycin, 500 ppm bixafen or both",13%
same,Observed antifungal activity O (%),[4]; [18],13%
same,Observed antifungal activity O (%),"[4]; day 13, 250 ppm natamycin, 500 ppm bixafen or both",12%
same,Observed antifungal activity O (%),[4]; [19],9%
same,Observed antifungal activity O (%),[4]; [20],9%
same,Observed antifungal activity O (%),"[4]; day 15, 250 ppm natamycin, 500 ppm bixafen or both",6%
same,Observed antifungal activity O (%),"[4]; day 15, 500 ppm natamycin, 1000 ppm bixafen or both",5%
same,Observed antifungal activity O (%),"[4]; day 15, 500 ppm natamycin, 2000 ppm bixafen or both",5%
same,Observed antifungal activity O (%),"[5]; day 10, 0.63 ppm natamycin, 25 ppm isopyrazam or both",0%
same,Observed antifungal activity O (%),"[5]; day 10, 1.25 ppm natamycin, 25 ppm bixafen or both",0%
